Read-outs that look alike come from different tables or passages of the source. Residues, ends and D or L forms follow the SMILES beside them. No end group written: not given here.
Legend:
[1] = system: Escherichia coli ATCC 25922; format: cell-based; conditions: for Antibacterial activity over the tested concentrations: 0.5, 1, 2.5 and 5 μM peptide, Fig. 2b; for Antibacterial activity over the tested concentrations / Killing activity among tested HDPs at less than 5 μM: 2 h; for Antibacterial activity over the tested concentrations / Antibacterial (lytic) activity against E.coli at 5 μM: 37 °C; for Relative antibacterial effect among all tested chicken HDPs / Killing activity among tested HDPs at less than 5 μM: E. coli; for Relative antibacterial effect among all tested chicken HDPs: under test conditions (0.5-5 μM, 2 h); for Bacteria killed at 0.5 μM: ATCC 25922, 2 h; for Antibacterial (lytic) activity against E.coli at 5 μM: 5 μM peptide, 6 × 10^6 CFU/ml E. coli ATCC 25922, 2 h, luminescence, Fig. 2a; for Killing activity among tested HDPs at less than 5 μM: less than 5 μM peptide; for Efficiency in reducing E. coli cell viability and damaging cell membranes (comparison among the CATHs): discussion summary of the viability and membrane damage data
Method: Gram-negative bacteria, Escherichia coli ATCC 25922, were purchased from Korean Collection for Type Culture and tested against each peptide. Cell viability analysis was carried out as previously reported. Briefly, 6 × 10^6 colony–forming units (CFU)/ml bacteria suspensions (90 μl) were placed into 96 well plates, followed by the addition of 10 μl of serial diluted peptide (final 0, 0.5, 1, 2.5, 5 μM) in triplicate. After 2 h incubation at 37 °C, equal volume of BacTiter-Glo™ Reagent (Promega) was added, and incubated for 5 min after which luminescence was measured with GloMax-Multi Detection System (Promega).
E. coli (6 × 10^6) were incubated with indicated amounts of peptide for 2 h and cell viability was compared to untreated cells. […] Each bar represents the mean ± S.D. value of at least three independent experiments. Non-treated cell considered as 100 % cell viability and peptides treated cell viability was compared and calculated in percentile. *** indicate p ≤ 0.001, ** indicate p ≤ 0.01 and * indicate p ≤ 0.05

E.coli = conditions: previous report; cited from earlier work
Description: Even though many tested chicken HDPs show varying efficiencies against pathogens, the majority kill bacteria at low concentration. […] These four peptides have very low net charge from 0.1 to 1.8. AvBD4 has 24 % hydrophobicity with 5.8 net charge and can kill bacteria very well compared to AvBD5, -8 and -13 that have the same hydrophobicity but lower cationicity of 0.1 to […].

E. coli = experiment: Detection of damaged E. coli membranes, LIVE/DEAD BacLight staining, confocal laser scanning microscopy; format: cell-based, Escherichia coli; conditions: 5 μM peptide, 6.5 × 10^6 CFU E. coli, 10 mM phosphate buffer pH 7.0, 37 °C, 2 h
Method: Fig. 3 Escherichia coli viability and membrane damage following treatment with cathelicidins. Membrane damage in E. coli treated with each synthetic cathelicidin peptide (5 μM) was detected with a LIVE/DEAD BacLight Bacterial Viability Kit. Green fluorescence indicates live bacteria with intact membranes; red fluorescence indicates dead bacteria with damaged membranes.

Molecule	Antibacterial activity over the tested concentrations [1]	Antibacterial (lytic) activity against E.coli at 5 μM [1]	Killing activity among tested HDPs at less than 5 μM [1]	also measured
CSCC[C@H](NC(=O)[C@H](Cc1c[nH]cn1)NC(=O)[C@H](Cc1ccc(O)cc1)NC(=O)[C@@H](N)CCCNC(=N)N)C(=O)N[C@@H](CCC(N)=O)C(=O)N[C@@H](CS)C(=O)NCC(=O)N[C@@H](Cc1ccc(O)cc1)C(=O)N[C@@H](CCCNC(=N)N)C(=O)NCC(=O)N[C@H](C(=O)N[C@@H](Cc1ccccc1)C(=O)N[C@@H](CS)C(=O)N[C@H](C(=O)N1CCC[C@H]1C(=O)NCC(=O)N[C@@H](CCCCN)C(=O)N[C@@H](CS)C(=O)N1CCC[C@H]1C(=O)N[C@@H](Cc1ccc(O)cc1)C(=O)NCC(=O)N[C@@H](CC(N)=O)C(=O)N[C@@H](C)C(=O)N[C@@H](Cc1ccc(O)cc1)C(=O)N[C@@H](CC(C)C)C(=O)NCC(=O)N[C@@H](CC(C)C)C(=O)N[C@@H](CS)C(=O)N[C@@H](CCCNC(=N)N)C(=O)N1CCC[C@H]1C(=O)N[C@@H](CCCCN)C(=O)N[C@@H](Cc1ccc(O)cc1)C(=O)N[C@@H](CO)C(=O)N[C@@H](CS)C(=O)N[C@@H](CS)C(=O)N[C@@H](CCCNC(=N)N)C(=O)N[C@@H](Cc1c[nH]c2ccccc12)C(=O)O)[C@@H](C)O)[C@@H](C)O [AvBD4] (H-RYHMQCGYRGTFCTPGKCPYGNAYLGLCRPKYSCCRW-OH; N-terminus and C-terminus assumed)				Antibacterial activity over the tested concentrations ([1]; listed as BD4): strongest activity among the three; Relative antibacterial effect among all tested chicken HDPs [1]: strongest antibacterial effect among all tested chicken HDPs; Relative antibacterial effect among all tested chicken HDPs ([1]; listed as β-defensin4): strongest antibacterial activity among all tested chicken HDPs
CC[C@H](C)[C@H](NC(=O)CNC(=O)[C@H](CC(N)=O)NC(=O)[C@H](CC(N)=O)NC(=O)[C@H](CS)NC(=O)[C@@H](NC(=O)CNC(=O)[C@@H](NC(=O)[C@H](Cc1c[nH]c2ccccc12)NC(=O)[C@H](Cc1ccc(O)cc1)NC(=O)[C@H](Cc1ccc(O)cc1)NC(=O)[C@@H]1CCCN1C(=O)[C@H](CCCNC(=N)N)NC(=O)[C@H](CCCNC(=N)N)NC(=O)[C@H](CS)NC(=O)[C@@H](NC(=O)CNC(=O)[C@@H]1CCCN1C(=O)[C@H](Cc1ccccc1)NC(=O)[C@H](CS)NC(=O)[C@H](CC(C)C)NC(=O)CNC(=O)[C@H](CC(N)=O)NC(=O)[C@H](CCCNC(=N)N)NC(=O)[C@H](CC(C)C)NC(=O)[C@H](CCCNC(=N)N)NC(=O)[C@H](CS)NC(=O)[C@@H](NC(=O)[C@H](CC(=O)O)NC(=O)[C@@H](NC(=O)[C@@H]1CCCN1C(=O)[C@@H](N)CCCNC(=N)N)[C@@H](C)CC)[C@@H](C)O)[C@@H](C)CC)[C@@H](C)CC)[C@@H](C)O)C(=O)NCC(=O)N[C@@H](CO)C(=O)N[C@@H](CS)C(=O)N[C@@H](CS)C(=O)N[C@@H](C)C(=O)N[C@@H](CCCNC(=N)N)C(=O)O [AvBD7] (H-RPIDTCRLRNGLCFPGICRRPYYWIGTCNNGIGSCCAR-OH; N-terminus and C-terminus assumed)	very strong antibacterial activity at all concentration			
CC[C@H](C)[C@H](NC(=O)[C@H](C)NC(=O)[C@H](CC(=O)O)NC(=O)[C@H](CCC(=O)O)NC(=O)[C@H](CC(=O)O)NC(=O)[C@@H]1CCCN1)C(=O)N[C@@H](CC(N)=O)C(=O)N[C@@H](CC(N)=O)C(=O)N[C@@H](C)C(=O)N[C@@H](CC(C)C)C(=O)N[C@@H](CC(N)=O)C(=O)N[C@@H](CCCCN)C(=O)N[C@H](C(=O)N[C@@H](CS)C(=O)N[C@@H](CO)C(=O)N[C@H](C(=O)NCC(=O)N[C@@H](CCCNC(=N)N)C(=O)N[C@@H](CCCNC(=N)N)C(=O)N[C@@H](CCC(N)=O)C(=O)N[C@@H](CCCNC(=N)N)C(=O)N[C@@H](CO)C(=O)N[C@H](C(=O)N[C@@H](CS)C(=O)N[C@@H](CCCCN)C(=O)N[C@@H](CCC(N)=O)C(=O)N[C@@H](CC(C)C)C(=O)N[C@@H](CC(C)C)C(=O)N[C@@H](CCCCN)C(=O)N[C@@H](CCCCN)C(=O)O)[C@@H](C)CC)[C@@H](C)O)C(C)C [cNK3] (H-PDEDAINNALNKVCSTGRRQRSICKQLLKK-OH; N-terminus and C-terminus assumed)	very strong antibacterial activity at all concentration			Bacteria killed at 0.5 μM [1]: 50%
GLPQDCERRGGFCSHKSCPPGIGRIGLCSKEDFCCRS [AvBD5, synthetic linear peptide corresponding to chicken avian β-defensin 5]		very weak lytic activity	minimal killing activity	
NNEAQCEQAGGICSKDHCFHLHTRAFGHCQRGVPCCRTVYD [AvBD8, synthetic linear peptide corresponding to chicken avian β-defensin 8]		very weak lytic activity	minimal killing activity	Lethal dose (LD)50 against E.coli (E.coli): 27 µM
PDSCNHDRGLCRVGNCNPGEYLAKYCFEPVILLCCKPLSPTPTKT [AvBD12, synthetic linear peptide corresponding to chicken avian β-defensin 12]		very weak lytic activity	minimal killing activity	
PDTVACRTQGNFCRAGACPPTFTISGQCHGGLLNCCAKIPAQ [AvBD10, synthetic linear peptide corresponding to chicken avian β-defensin 10]		very weak lytic activity	minimal killing activity	
PIRNWWIRIWEWLNGIRKRLRQRSPFYVRGHLNVTSTPQP [CATB1]				Efficiency in reducing E. coli cell viability and damaging cell membranes (comparison among the CATHs) [1]: weak antibacterial activity compared to others; E. coli membrane damage (red fluorescence, LIVE/DEAD BacLight) (E. coli): greater with CATH2 or CATH3 than with CATH1 or CATHB1
PVLVQRGRFGRFLRKIRRFRPKVTITIQGSARFG [CATH2]	very strong antibacterial activity at all concentration			Bacteria killed at 0.5 μM [1]: 50%; Efficiency in reducing E. coli cell viability and damaging cell membranes (comparison among the CATHs) [1]: highest efficiency; E. coli membrane damage (red fluorescence, LIVE/DEAD BacLight) (E. coli): greater with CATH2 or CATH3 than with CATH1 or CATHB1
PVRVKRFWPLVPVAINTVAAGINLYKAIRRK [CATH3]	very strong antibacterial activity at all concentration			Bacteria killed at 0.5 μM [1]: 50%; Efficiency in reducing E. coli cell viability and damaging cell membranes (comparison among the CATHs) [1]: highest efficiency; E. coli membrane damage (red fluorescence, LIVE/DEAD BacLight) (E. coli): greater with CATH2 or CATH3 than with CATH1 or CATHB1
TATQCRIRGGFCRVGSCRFPHIAIGKCATFISCCGR [AvBD3, synthetic linear peptide corresponding to chicken avian β-defensin 3]	kill effectively over all tested concentrations			
